What was measured:
[1] = Fluorescence in water, ethanol and acetone (aggregation-induced luminescence); assay type: physicochemical
Protocol: Fluorescence spectra were measured on a Perkin Elmer LS95, HITACH F-4500, and Edinburgh FLS920 fluorescence spectrometers at room temperature with laterally collection of fluorescence. Fluorescence lifetime was measured using the Edinburgh FLS920 fluorescence spectrometer. Two-photon fluorescence utilized laser pulses emitted by a Ti: sapphire Mira900-F mode-locked laser as the irradiation light source with a repetition frequency of 76 MHz and a pulse width of 200 fs using the SpectroPro 300i spectrometer to collect fluorescence laterally. […] All the test utilized 1.0 cm×1.0 cm Quartet pass quartz crystal cuvette. Reagents used to prepare solutions are either spectroscopic or chromatographic purified.
It can be seen that the fluorescence intensity of BHVC in aqueous solution is very weak and the fluorescence emission peak is at 627 nm. However, the fluorescence intensity in ethanol solution with the same concentration of BHVC increases by 30 times, and the fluorescence emission peak red-shifted to 631 nm. In fact, ethanol is a poor solvent for BHVC. Therefore, BHVC exists in the form of aggregates in ethanol solvent.

[2] = UV-Vis absorption of aqueous solutions at different concentrations (solubility); assay type: physicochemical; conditions: 10^-6 to 10^-4 mol/L, no shift of UV absorption spectrum
Source text: The UV-vis absorption spectra of aqueous solutions of different concentrations of BHVC are shown in FIG. 1, the absorption peak at […] is derived from the absorption of the two cross-shaped skeletons of BHVC, and the absorption peak at […] is the characteristic absorption peak of tetraphenylethylene group. When the concentration of BHVC in aqueous solution changed from 10^−6 mol/L to 10^−4 mol/L, there was no red-shift or blue-shift of the UV absorption spectrum of the solution. In general, the shift of the absorption peak of the π-conjugated chromophore solution is due to the π-π interaction between the molecules.

ctDNA = ctDNA detection by fluorescence of the probe in Tris-HCl/KCl buffer pH 7.2; assay type: binding
Protocol: First, a buffer solution of pH 7.2 is prepared, the preparation process of which is as follows: 394 mg of Tris-HCl and 1.863 g of KCl are added to a 250 ml beaker, and deionized water is added to prepare a buffer solution containing 10 mmol/L Tris-HCl and 100 mmol/L KCl and of pH 7.2 buffer solution.
Then, the buffer solution was used to prepare 0-500 μg/ml ctDNA aqueous solutions, wherein the BHVC content was maintained at 5×10^−6 mol/L.
Taking deionized water solution with ctDNA content of 100 μg/ml as an example, the specific preparation process is described as follows: First, […] compound BHVC was added to a 100 ml volumetric flask, followed by the addition of 100 ml pH 7.2 buffer solution to formulate to a BHVC buffer solution of concentration of 10^−4 mol/L, then 1 ml the above solution was removed to dilute to 10 ml so that the concentration of BHVC was 10^−5 mol/L, 5 ml of this solution was taken and added to a clean spawn bottle.
Then […] ctDNA was taken and added to 10 ml volumetric flask, buffer was added to formulate as 100 μg/ml ctDNA solution, 1 ml this solution was taken, and then added to 4 ml buffer solution, the ctDNA concentration is diluted to 20 μg/ml, the ctDNA solution was added dropwise to the BHVC buffer solution previously placed in the spawn bottle under vigorous stirring. After the addition was completed, the ctDNA solution was allowed to stand still for 2 hours and its UV-Vis absorption and fluorescence spectra were measured.
Based on the study of the absorption and aggregation-induced luminescence properties of BHVC, the fluorescence occurrence behavior of BHVC buffer solution with different ctDNA concentrations was studied with a buffer solution of pH 7.2 and containing 10 mmol/L Tris-HCl and 100 mmol/L KCl, the changes in the detected fluorescence spectrum are shown in FIG. 3 (a). It can be seen from the figure: as the ctDNA concentration increases, the fluorescence intensity of the solution gradually increases, and the fluorescence peak is blue-shifted. When the content of ctDNA changed from 0 μg/ml to 50 μg/ml, the maximum emission peak of fluorescence spectrum shifted from 633 nm to 598 nm, that is blue shifted […]. When the ctDNA concentration was more than 50 μg/ml, the blue shift of the peak of the fluorescence spectrum appeared inflection point, the rate of change slowed down. When the ctDNA content was 500 μg/ml, the peak shifted to 576 nm, which was a blue shift of […] relative to the fluorescence spectrum of a 50 μg/ml DNA solution (FIG. 3 (b)).
The trend in the change of fluorescence intensity of the solution is shown in FIG. 4 (A), with the ctDNA concentration increases, the fluorescence intensity of the solution can be divided into two intervals. […]

CCn1c2cc(/C=C/c3cc[n+](C)cc3)ccc2c2ccc(/C=C/c3cc[n+](C)cc3)cc21.[I-].[I-] [BHVC, 2,7-bis (1-methyl-4-vinylpyridine)-9-ethylcarbazole iodised salt]
increase of fluorescence intensity in ethanol versus aqueous solution ([1]; 10^-5 mol/L, excitation 420 nm): 30 times
solvent quality of ethanol for the probe ([1]; ethanol, exists as aggregates): poor solvent
solubility in aqueous solution [2]: good solubility
Stern-Volmer constant Ksv (ctDNA; ctDNA 0-50 μg/ml linear interval, I/I0=Ksv[Q]+1, excitation 420 nm): 1.4×10^2
blue shift of emission peak (to 576 nm) relative to 50 μg/ml DNA solution (ctDNA; ctDNA 500 μg/ml): 24 nm
increase of fluorescence intensity relative to 0 μg/ml ctDNA (ctDNA; ctDNA 500 μg/ml, BHVC 5×10^-6 mol/L): 20 fold
blue shift of maximum emission peak (633 nm to 598 nm) (ctDNA; ctDNA from 0 μg/ml to 50 μg/ml): 35 nm

Reference: patent publication US10711313B2, “Kit for detecting ctDNA and expression of drug-resistant genes related to applicability of tumor chemotherapeutic drugs” (GUIZHOU MEDICAL UNIVERSITY, priority 2018, dated 2020)
